Measured values taken from article PMC11519904, “Comprehensive Cell Biological Investigation of Cytochalasin B Derivatives with Distinct Activities on the Actin Network” (Journal of Natural Products, 2024).
Values after ≈ are worked out from the molar mass of the structure shown. “Also recorded” adds a separate entry of the source. Where two headings read alike, the source gives them in different places.

Columns and labels:
[1] = system: U-2OS cells; test: Cell proliferation assay (Incucyte), 24 h treatment and 47 h recovery; format: cell-based, human; conditions: 24 h 5 x IC50 treatment
Experimental: U-2OS cells were seeded into fibronectin-coated (25 μg/mL) 96-well plate wells at densities of 3700 cells/well and allowed to spread overnight at 37 °C and 7.5% CO2. Cells were treated with 5 × IC50 concentrations of desired compounds for 24 h, washed twice with prewarmed PBS, and cultured in complete medium for further 47 h. Cells were recorded immediately after compound addition over the course of the experiment using an Incucyte S3 live-cell analysis system (Sartorius, Göttingen, Germany) with a 20 × objective at 37 °C and 5% CO2. Three phase contrast images per well and three wells per treatment were captured every hour for 71 h. The quantification of phase object counts was accomplished with the Adherent Cell-by-Cell analysis module of the IncuCyte S3 Live Cell Analysis Software and normalized to the average, respective initial phase contrast count. Graphical presentation of the data and ordinary one-way ANOVA followed by Dunnett’s multiple comparisons test was performed using GraphPad Prism version 8.4.3 for Windows, GraphPad Software (Boston, MA, USA, www.graphpad.com).

[2] = system: Mycobacterium smegmatis (ATCC 7000084); test: Serial dilution assay (MIC), M. smegmatis; format: cell-based; conditions: Mycolicibacterium smegmatis, ATCC7000084; growth inhibition at 24 h; read-out: minimum inhibitory concentration (MIC) against M. smegmatis
Experimental: (§1) Serial dilutions of compounds were prepared as triplicates in sterile U-bottom-shaped 96-well plates (Corning, USA). Mueller-Hinton broth (MHB) medium was used for bacteria, and YMG medium was used for filamentous fungi and yeasts. The selected organisms represent a broad spectrum of pathogens of clinical interest, as well as sensitive indicator strains (Gram-positive bacteria: Bacillus subtilis (DSM 10), Staphylococcus aureus (DSM 346), Mycobacterium smegmatis (ATCC 7000084); Gram-negative bacteria: Acinetobacter baumannii (DSM 30008), Chromobacterium violaceum (DSM 30191), Escherichia coli (DSM 1116), Pseudomonas aeruginosa (PA 14); fungi and yeast: Schizosaccharomyces pombe (DSM 70572), Pichia anomala (DSM 6766), Mucor hiemalis (DSM 2656), Candida albicans (DSM 1665), Rhodotorula glutinis (DSM 10134)).
(§2) The compounds were dissolved in MeOH (1 mg/mL), added to the bacterial suspension, and diluted to the final concentrations. The plate was incubated at 37 °C under static conditions. Growth inhibition was assessed at 24 h. MeOH was used as negative control. […]

[3] = system: filamentous actin (F-actin) in U-2OS wild type (wt) cells; test: Actin disruption assay in U-2OS cells (phalloidin staining); format: cell-based, human; conditions: for effect on F-actin network, high dose 1 h: 5 x IC50 (L929), compared to control; for effect on actin and nuclei number, high dose 24 h: 5 x IC50, 24 h, differences between 1 and 24 h treatment
Experimental: For this, the human osteosarcoma cell line U-2OS was treated using concentrations estimated based on previously determined IC50 values in murine L929 fibroblasts (Table 1), referred to as low dose (1 × IC50), and a 5-fold concentration, referred to as high dose (5 × IC50). Reorganization of the F-actin network was also investigated upon high dose treatment, followed by washout and a 1 h recovery phase in fresh medium. The impact on F-actin network organization was visualized using fluorescently labeled phalloidin (Figure 2). […] In addition, the effects on F-actin structures observed upon high dose treatment of all compounds were fully reversible after a 1 h recovery time (Figure 2m–q).
The respective previously determined IC50 values in L929 were used to calculate the treatment concentration (1 × IC50: low dose; 5 × IC50: high dose).[37] DMSO was used as the vehicle control, corresponding to the highest compound volume used in the assay. Coverslips were coated with 25 μg/mL fibronectin (Roche, Mannheim, Germany) diluted 1:40 in phosphate buffered saline (PBS, pH 7.4, Life Technologies), and cells were seeded at a density of 20,000 cells and allowed to spread overnight. CO2-equilibrated culture medium was spiked with the desired compound and DMSO, respectively, in the above-mentioned concentration, and cells were treated with prepared medium for 1 h under cell culture conditions. For long-term experiments, the treatment phase was extended to 24 h. Cells were washed once and fixed afterward using 4% prewarmed paraformaldehyde (PFA) supplied in PBS for 20 min at 37 °C, followed by three additional washing steps with prewarmed PBS buffer. In addition, the reversibility of high dose effects on F-actin network organization was investigated by a washout procedure including three times prewarmed PBS wash steps prior to the addition of fresh medium and a recovery time of 1 h before fixation. In the case of 24 h treatments, the recovery phase was extended to 47 h. Cells were permeabilized with 0.1% Triton X-100 (Bio-Rad Laboratories, Hercules, CA, USA) in PBS buffer for 1 min at room temperature, washed three times with PBS, and stained for F-actin using ATTO-594-coupled phalloidin (ATTO-Tec, Siegen, Germany) diluted in PBS buffer (1:100) for 1 h at room temperature. Coverslips were washed thrice in PBS and mounted in ProLong Diamond antifade mountant (Invitrogen) containing DAPI to probe for nuclear DNA. Cells were recorded using an inverted microscope (Nikon Eclipse Ti2, Tokyo, Japan) equipped with a 60 times Nikon oil immersion objective (Plan Apofluar, 1.4 NA), a pE-4000 (CoolLED, Andover, UK) as light source, and a pco.edge back-illuminated sCMOS camera (Excelitas Technologies, Mississauga, ON, Canada). The microscopy system was operated by and images were recorded with NIS (Nikon) and processed with ImageJ (NIH, Bethesda, MD, USA).

[4] = system: Schizosaccharomyces pombe (DSM 70572); test: Serial dilution assay (MIC), S. pombe; format: cell-based; conditions: DSM70572, growth inhibition at 24 h, read-out: MIC against S. pombe
Experimental: as §1, §2

[5] = system: KB3.1 (human cervix carcinoma); test: Cytotoxicity assay (MTT), KB3.1; format: cell-based; conditions: 5 days of incubation, MTT, read-out: IC50 KB3.1
Experimental: The cytotoxicity assay was implemented in 96-well flat-bottom microtiter plates following a reported procedure.[21],[22],[33] The mammalian cell lines L929 (mouse fibroblast) and KB3.1 (human cervix carcinoma) were cultivated at 37 °C and 10% CO2 in Dulbecco’s modified minimum essential medium (DMEM, Life Technologies, Carlsbad, CA, USA) supplemented with 10% fetal bovine serum (FBS, Life Technologies). The microtiter plate was filled with 120 μL of suspended cells (50,000/mL), and 60 μL of a serial dilution of the test compound was added. After 5 days of incubation, growth inhibition (IC50) was determined by a colorimetric tetrazolium dye MTT assay.[34] The compounds were dissolved in MeOH (1 mg/mL), MeOH was used as negative control, and epothilone[35] (1 mg/mL) was used as positive control.

C=C1[C@@H](C)[C@H]2[C@H](Cc3ccccc3)NC(=O)[C@]23OC(=O)/C=C/[C@H](O)CCC[C@@H](C)C/C=C/[C@H]3[C@@H]1OC(C)=O [Compound 3, 7-O-acetyl cytochalasin B]
cell proliferation / recovery after washout [1]: significantly diminished; also recorded: completely abolished | MIC [2]: 66.6 µg/mL (≈ 128 µM) | effect on F-actin network, high dose 1 h ([3]; 1 h): no such structures; also recorded: no effect | effect on actin and nuclei number, high dose 24 h [3]: + actin disruption; also recorded: altered actin structures, however without inducing multinucleation

C=C1[C@@H](C)[C@H]2[C@H](Cc3ccccc3)NC(=O)[C@]23OC(=O)/C=C/[C@H](OC(C)=O)CCC[C@@H](C)C/C=C/[C@H]3[C@@H]1O [Compound 6, 20-O-acetyl cytochalasin B]
MIC [4]: 33.3 µg/mL (≈ 63.8 µM) | effect on F-actin network, low dose ([3]; 1 x IC50 (L929), 1 h): partially led to compromised lamellipodia and a reduction of intermittent, cytoplasmic F-actin | effect on F-actin network, high dose 1 h ([3]; 1 h): complete collapse of the F-actin network; also recorded: actin disruption | effect on actin and nuclei number, high dose 24 h [3]: + multinucleation

C=C1[C@@H](C)[C@H]2[C@H](Cc3ccccc3)N(C(C)=O)C(=O)[C@]23OC(=O)/C=C/[C@H](O)CCC[C@@H](C)C/C=C/[C@H]3[C@@H]1O [Compound 5, N-acetyl cytochalasin B]
IC50 [5]: 7.9 µM | IC50 ([5]; Homo sapiens, KB 3-1, 120 h): 4.8 to 9.4 µM | effect on F-actin network, high dose 1 h ([3]; 1 h): only slight; also recorded: moderate effects | effect on actin and nuclei number, high dose 24 h [3]: + multinucleation actin disruption
